Data reported in patent publication US8551963B2, “Imidazolothiazole compounds and methods of use thereof” (Ambit Biosciences Corporation, priority 2008, dated 2013).
Like-named read-outs stand apart in the source and are kept apart here.

How the values were obtained:
MV4;11 cells = assay: MV4;11 cellular proliferation assay (Cell Titer Blue); type: cell-based; conditions: Homo sapiens, MV4-11, 72 h, read-out: EC50 (50% inhibition of cellular proliferation)
Method: (§2) Cells were cultured overnight in low serum media with 0.5% FBS. The following day, cells were seeded on to a 96-well plate at 40,000 cells per well at a volume of 100 μL per well.
(§3) CTB reagent was thawed in a 37° C. water bath. 40 μL of CTB reagent was added to the plate containing the cells, and the cells were incubated with the reagent at 37° C. in 5% CO2 for 3 hours. The absorbance was measured at 560 nm (excitation)/590 nm (emission) using Spectramax Plus 384 Absorbance Microplate Reader by Molecular Devices.

CYP2C8 = CYP2C8 (Homo sapiens (Human), UniProt P10632); assay: Inhibitory constant KI in human liver microsomes, CYP2C8; type: in vitro ADME; conditions: CYP2C8, global non-linear regression
CYP2C8, sequence (P10632 whole entry): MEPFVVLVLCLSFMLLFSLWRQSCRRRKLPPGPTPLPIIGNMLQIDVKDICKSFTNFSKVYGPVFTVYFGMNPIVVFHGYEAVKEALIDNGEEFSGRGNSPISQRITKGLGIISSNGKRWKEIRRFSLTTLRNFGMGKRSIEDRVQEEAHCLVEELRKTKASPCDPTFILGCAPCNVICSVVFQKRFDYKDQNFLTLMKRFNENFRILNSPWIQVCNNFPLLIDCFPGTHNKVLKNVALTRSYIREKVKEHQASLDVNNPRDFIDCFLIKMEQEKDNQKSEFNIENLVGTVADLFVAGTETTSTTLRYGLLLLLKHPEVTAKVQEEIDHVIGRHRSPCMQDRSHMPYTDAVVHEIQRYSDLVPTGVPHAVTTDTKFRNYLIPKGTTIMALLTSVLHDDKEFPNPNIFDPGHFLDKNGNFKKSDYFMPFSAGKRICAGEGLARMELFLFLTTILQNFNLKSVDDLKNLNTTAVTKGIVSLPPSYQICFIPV
Method: A 2 mM stock of Compound I-1 was prepared in acetonitrile (ACN) and serially diluted 2-fold from 2000 μM to 15.63 μM in ACN. […] Individual human liver microsome preparations containing the substrate were then incubated with Compound I-1 (final concentration range 40 μM to 0.31 μM of Compound I-1) for a final incubation concentration of 0.5 mg/mL microsome, 75 mM KPO4, 6.5 mM MgCl2, 1 mM NADPH and 2% acetonitrile (ACN). The samples were incubated in a 37° C. shaking water bath for 20 minutes then quenched with ACN:water (75:25) containing internal standards propranolol at 0.3 ng/mL and cortisone at 0.3 ng/mL. After brief mixing, the plate was centrifuged and the supernate removed for analysis by LC/MS/MS (API 4000 Qtrap) for formation of 6-hydroxy-testosterone (CYP3A4), 4-hydroxy-mephenyloin (CYP2C19) or hydroxy-taxol (CYP2C8). The data was analyzed using global non-linear regression software (GraphPad Prism) and the overall fit of the data (R^2) was used to determine if Compound I-1 was a competitive, non-competitive, or uncompetitive inhibitor. In addition the data was plotted as a Lineweaver-Burke graph (1/V versus 1/S, where V is the […] and S is the substrate concentration) for each inhibitor concentration. Based on the location of convergence (competitive and non-competitive) or non convergence (uncompetitive) of the plots at each inhibitor concentration, the type of inhibition was determined.
Global non-linear regression allows analysis of all the individual inhibitor curves simultaneously and determines the best fit value for shared parameters between the data sets, in this case KI (or KI′). The results of the global nonlinear analysis of Compound I-1 inhibition of the CYP450 isoforms 3A4, 2C19 and 2C8 are shown in Table 12.

CYP2C19 = CYP2C19 (Homo sapiens (Human), UniProt P33261); assay: Cyp enzyme inhibition assay in human liver microsomes, CYP2C19; type: in vitro ADME; conditions: CYP2C19, substrate mephenytoin
CYP2C19, sequence (P33261 whole entry): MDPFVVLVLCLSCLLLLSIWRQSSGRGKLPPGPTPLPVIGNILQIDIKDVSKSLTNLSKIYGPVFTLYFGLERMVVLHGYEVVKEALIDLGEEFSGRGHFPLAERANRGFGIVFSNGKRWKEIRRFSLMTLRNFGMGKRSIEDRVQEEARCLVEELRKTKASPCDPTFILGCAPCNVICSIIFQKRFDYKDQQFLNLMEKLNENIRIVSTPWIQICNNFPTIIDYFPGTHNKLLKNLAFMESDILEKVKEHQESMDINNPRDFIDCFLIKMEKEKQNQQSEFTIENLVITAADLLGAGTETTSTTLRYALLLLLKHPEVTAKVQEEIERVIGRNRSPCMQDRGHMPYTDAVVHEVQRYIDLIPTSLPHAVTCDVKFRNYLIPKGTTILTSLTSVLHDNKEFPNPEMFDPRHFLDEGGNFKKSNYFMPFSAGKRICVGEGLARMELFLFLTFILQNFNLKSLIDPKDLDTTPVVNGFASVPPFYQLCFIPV
Method: (§1) The ability of the compound I-1 to inhibit human metabolizing enzymes CYP3A4, CYP2C9, […], CYP2C19 and CYP1A2, was assessed using those enzymes found collectively in human liver microsomes. The test compound I-1 was prepared as a solution in DMSO or acetonitrile and plated in duplicate rows of a 96-well plate (Nunc) for a final assay concentration of 40 μM in 0.2% DMSO (or 2% acetonitrile) in the first column and serially diluted two-fold going down the row. A known selective inhibitor of a given CYP enzyme listed in Table 8 was selected as the appropriate positive control. For each CYP enzyme inhibition assay, an appropriate enzyme-substrate mixture was prepared to afford a final assay concentration of 75 mM KPO4/pH 7.4, 6.5 mM MgCl2, 0.25 mg/mL pooled male and female human liver microsome (CellzDirect lot HMMC-PL020) with the amounts of the appropriate substrate for each CYP enzyme assay given in Table 8. The enzyme-substrate mixture was added to columns 1 through 10 and column 11 served as a negative control with enzyme solution lacking substrate. A solution of NADPH (Calbiochem) was then added to all rows except for one where NADPH would be added after the incubation period, in order to detect NADPH-independent non-CYP-mediated metabolism. The plate was briefly vortexed and left to shake in a 37° C. water bath for 20 minutes. […]

CYP2D4 = CYP2D4 (Homo sapiens, UniProt P10635); assay: Cyp enzyme inhibition assay in human liver microsomes, CYP2D4; type: in vitro ADME; conditions: both sexes, pooled human liver microsomes, pH 7.4, probe dextromethorphan, CYP2D4, substrate dextromethorphan
CYP2D4, sequence (P10635 whole entry, looked up): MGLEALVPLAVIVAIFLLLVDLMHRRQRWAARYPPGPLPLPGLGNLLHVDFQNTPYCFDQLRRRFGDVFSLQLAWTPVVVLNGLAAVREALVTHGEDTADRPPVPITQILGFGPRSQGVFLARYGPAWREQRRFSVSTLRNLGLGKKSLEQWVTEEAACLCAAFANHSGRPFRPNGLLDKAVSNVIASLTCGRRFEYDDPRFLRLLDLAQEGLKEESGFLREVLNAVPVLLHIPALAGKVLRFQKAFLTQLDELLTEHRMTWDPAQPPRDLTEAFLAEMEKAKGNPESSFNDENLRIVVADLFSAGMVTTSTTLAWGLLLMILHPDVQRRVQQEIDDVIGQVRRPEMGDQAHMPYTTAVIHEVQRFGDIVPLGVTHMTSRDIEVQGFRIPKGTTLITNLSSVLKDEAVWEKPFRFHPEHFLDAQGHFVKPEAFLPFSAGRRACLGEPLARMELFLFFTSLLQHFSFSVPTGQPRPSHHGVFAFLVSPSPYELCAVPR
Method: as §1

hERG channel = hERG channel (Homo sapiens (Human), UniProt Q12809); assay: hERG channel inhibition, whole cell recordings in CHO cells; conditions: 10 μM
hERG channel, sequence (Q12809 whole entry): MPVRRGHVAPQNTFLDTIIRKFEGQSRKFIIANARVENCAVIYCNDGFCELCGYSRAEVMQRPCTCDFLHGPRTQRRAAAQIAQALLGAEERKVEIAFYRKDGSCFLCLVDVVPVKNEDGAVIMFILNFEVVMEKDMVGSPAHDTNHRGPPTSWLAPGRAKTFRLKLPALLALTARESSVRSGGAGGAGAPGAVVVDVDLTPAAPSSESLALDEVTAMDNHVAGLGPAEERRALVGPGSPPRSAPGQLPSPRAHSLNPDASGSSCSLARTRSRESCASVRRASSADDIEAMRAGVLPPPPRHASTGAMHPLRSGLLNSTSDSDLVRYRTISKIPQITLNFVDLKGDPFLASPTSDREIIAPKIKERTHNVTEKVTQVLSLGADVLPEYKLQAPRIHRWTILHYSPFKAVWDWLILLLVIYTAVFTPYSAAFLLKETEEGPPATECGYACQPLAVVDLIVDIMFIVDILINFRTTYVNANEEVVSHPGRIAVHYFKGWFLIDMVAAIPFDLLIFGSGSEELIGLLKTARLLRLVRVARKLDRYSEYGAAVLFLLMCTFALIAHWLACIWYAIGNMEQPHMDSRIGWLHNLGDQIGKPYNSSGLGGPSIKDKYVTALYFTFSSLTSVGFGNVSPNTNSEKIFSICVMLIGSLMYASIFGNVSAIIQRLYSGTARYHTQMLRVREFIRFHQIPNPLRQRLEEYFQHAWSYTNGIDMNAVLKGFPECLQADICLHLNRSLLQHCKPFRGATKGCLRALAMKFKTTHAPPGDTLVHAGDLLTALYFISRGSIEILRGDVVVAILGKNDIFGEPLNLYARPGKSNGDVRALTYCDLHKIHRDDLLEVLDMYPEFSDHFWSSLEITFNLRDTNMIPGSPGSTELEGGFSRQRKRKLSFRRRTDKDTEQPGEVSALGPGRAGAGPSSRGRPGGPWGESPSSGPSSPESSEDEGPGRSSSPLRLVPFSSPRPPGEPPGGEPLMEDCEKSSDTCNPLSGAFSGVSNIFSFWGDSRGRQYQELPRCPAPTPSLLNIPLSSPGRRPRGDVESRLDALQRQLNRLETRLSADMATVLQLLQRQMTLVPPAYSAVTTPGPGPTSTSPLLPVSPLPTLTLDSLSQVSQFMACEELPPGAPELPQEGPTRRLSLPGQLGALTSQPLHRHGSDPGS
Method: Test articles in this study were therefore characterized to determine their ability to inhibit the hERG channel. Ion channel activity was measured using a stably transfected Chinese Hamster Ovary (CHO) cell line expressing the hERG mRNA.
A CHO cell line stably expressing hERG channels was obtained from Aviva Systems Biology LLC and used for the study. Cells were cultured in DMEM/F12 containing 10% FBS, 1% penicillin/streptomycin and 500 μg/ml G418. Before testing, cells were harvested using Accumax (Innovative Cell Technologies).
Whole cell recordings were performed using PX 7000A (Axon Instruments) with AVIVA's SealChip™ technology. Cells were voltage clamped at a holding potential of −80 mV. The hERG current was then activated by a depolarizing step to −50 mV for 300 ms. This first step at −50 mV was used as a baseline for measuring peak amplitude of the tail current. Next, a voltage step to +20 mV was applied for 5 s to activate the channels. Finally a step back to −50 mV for 5 s removed activation and the deactivating tail current was recorded.
All compounds were prepared from either 10 or 30 mM DMSO stock solutions. Solutions were mixed by sonication for 20 min, followed by vigorous vortexing. […]
After achieving whole cell configuration, cells were monitored for 90 s to assess stability and then washed with External Solution for 66 s. […]

RS4;11 cells = assay: RS4;11 cellular proliferation assay (Cell Titer Blue); type: cell-based; conditions: Homo sapiens, RS4-11, 48 h, read-out: EC50 (50% inhibition of cellular proliferation)
Method: as §2, §3

CYP3A4 = CYP3A4 (Homo sapiens (Human), UniProt P08684); assay: Cyp enzyme inhibition assay in human liver microsomes, CYP3A4; type: in vitro ADME; conditions: CYP3A4, substrate testosterone
CYP3A4, sequence (P08684 whole entry): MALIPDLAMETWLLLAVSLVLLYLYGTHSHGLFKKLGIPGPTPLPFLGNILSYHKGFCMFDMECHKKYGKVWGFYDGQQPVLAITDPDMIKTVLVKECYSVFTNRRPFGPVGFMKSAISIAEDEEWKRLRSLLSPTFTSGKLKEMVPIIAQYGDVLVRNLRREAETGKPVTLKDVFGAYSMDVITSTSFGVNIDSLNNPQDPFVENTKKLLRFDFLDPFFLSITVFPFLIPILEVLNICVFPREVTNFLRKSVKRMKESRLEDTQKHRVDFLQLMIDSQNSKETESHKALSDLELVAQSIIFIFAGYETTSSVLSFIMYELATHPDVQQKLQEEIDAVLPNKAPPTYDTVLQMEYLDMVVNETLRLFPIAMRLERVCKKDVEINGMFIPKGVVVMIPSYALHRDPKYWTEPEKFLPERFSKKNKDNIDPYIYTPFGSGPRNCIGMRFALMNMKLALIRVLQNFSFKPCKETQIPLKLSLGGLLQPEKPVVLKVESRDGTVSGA
Method: as §1

plasma protein = assay: Plasma protein binding assay (equilibrium dialysis); type: in vitro ADME; conditions: 1 μM, equilibrium dialysis 16-20 hours at 37° C.
Method: Reagents: 1× Isotonic PBS (Mediatech, Inc., Herndon, Va.); 96 Well Equilibrium Dialyzer (Harvard Apparatus, Holliston, Mass.) and Animal plasma from species of interest.
1 μM solutions of test compound were prepared in both isotonic PBS and 10% animal plasma in isotonic PBS.
200 μl of each test solution was added to opposite sides of the equilibrium dialysis membrane.
Samples were incubated for 16-20 hours at 37° C.
After incubation, 100 μl sample was removed from the PBS side and diluted with 100 μl of 20% animal plasma in PBS.
100 μl sample was removed from the 10% animal plasma side and diluted with 100 μl of 10% animal plasma.
A calibration curve was prepared in 10% animal plasma to extrapolate unknown concentrations.
Samples were analyzed by LC/MS/MS.
50 μl of samples, calibration standards and quality control standards were extracted with 100 μl of acetonitrile containing 25 ng/ml of internal standard.
Calculations Calculate fraction unbound in 10% plasma Fu(10%)=1−(PC−PF)/PC) Convert 10% plasma value to 100% Fu(100%)=Fu10%/(10−9*Fu10%).

P-Glycoprotein = P-Glycoprotein (Homo sapiens (Human), UniProt P08183); assay: Digoxin bidirectional MDR1-MDCK permeability, Compound I-1 as an inhibitor; conditions: Surf.
P-Glycoprotein, sequence (P08183 whole entry): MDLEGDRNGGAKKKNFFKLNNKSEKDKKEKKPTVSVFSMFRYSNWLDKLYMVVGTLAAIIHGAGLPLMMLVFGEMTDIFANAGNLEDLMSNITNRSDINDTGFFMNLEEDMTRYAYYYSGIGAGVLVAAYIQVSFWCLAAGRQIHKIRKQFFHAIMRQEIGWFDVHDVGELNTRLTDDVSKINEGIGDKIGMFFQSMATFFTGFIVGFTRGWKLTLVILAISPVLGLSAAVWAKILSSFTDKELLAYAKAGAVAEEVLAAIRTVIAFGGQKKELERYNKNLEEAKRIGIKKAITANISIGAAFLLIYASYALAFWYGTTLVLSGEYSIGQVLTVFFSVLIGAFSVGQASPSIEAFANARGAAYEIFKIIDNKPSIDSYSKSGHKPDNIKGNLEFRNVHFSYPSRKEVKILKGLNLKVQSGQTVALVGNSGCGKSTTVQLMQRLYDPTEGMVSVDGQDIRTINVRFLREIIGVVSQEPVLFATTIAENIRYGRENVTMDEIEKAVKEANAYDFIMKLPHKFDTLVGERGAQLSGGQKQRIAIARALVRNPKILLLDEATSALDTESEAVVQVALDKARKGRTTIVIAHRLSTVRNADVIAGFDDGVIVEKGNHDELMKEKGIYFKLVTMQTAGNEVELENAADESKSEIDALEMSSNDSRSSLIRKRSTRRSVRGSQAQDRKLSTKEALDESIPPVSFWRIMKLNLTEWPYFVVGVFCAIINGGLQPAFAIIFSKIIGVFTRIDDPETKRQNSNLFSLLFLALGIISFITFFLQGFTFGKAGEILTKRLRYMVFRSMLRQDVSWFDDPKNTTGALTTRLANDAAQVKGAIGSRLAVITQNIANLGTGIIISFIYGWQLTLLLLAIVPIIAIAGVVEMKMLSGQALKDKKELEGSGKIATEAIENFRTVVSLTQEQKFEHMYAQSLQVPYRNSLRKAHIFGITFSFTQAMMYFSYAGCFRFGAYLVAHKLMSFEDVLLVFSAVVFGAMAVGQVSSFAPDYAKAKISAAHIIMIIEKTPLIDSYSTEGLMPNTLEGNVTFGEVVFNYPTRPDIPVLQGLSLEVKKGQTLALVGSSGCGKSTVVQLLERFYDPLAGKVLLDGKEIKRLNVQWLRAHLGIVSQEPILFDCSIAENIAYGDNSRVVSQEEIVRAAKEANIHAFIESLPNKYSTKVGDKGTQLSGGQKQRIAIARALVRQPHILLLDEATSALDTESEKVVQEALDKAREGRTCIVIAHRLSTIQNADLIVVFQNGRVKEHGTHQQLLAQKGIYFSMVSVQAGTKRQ
Method: MDR1-MDCK cells were grown to confluence for 5-10 days on 1 μm filters in 24-well plate. Aliquots of DMSO solute stocks were diluted into Hank's balanced salt solution (HBSS) pH 7.4 containing 25 mM HEPES+−0.05% PS80 to give 0.5, 1.5 or 5.0 μM solute concentrations. Final concentrations of DMSO in the assayed samples ranged from 0.005% for the 0.5 μM concentration to 0.05% for the 5 μM concentration. […] The solute containing donor solutions were transferred to either the apical or basolateral chamber of the permeability diffusion apparatus. Receiver solutions consisted of Hank's balanced salt solution (HBSS) pH 7.4 containing 25 mM HEPES+0.05% PS80. The entire receiver solution was removed at 20 minute intervals and manually replaced with fresh buffer. The concentration of transported solute during each sampling interval was determined by HPLC/UV/MS. The standard curve was produced from serial dilutions of the dosing solution. D0 was a 50 μl aliquot of dosing solution from the donor well diluted with 450 μl of HBSS. The standard curve was produced from serial dilutions of the dosing solution (1:10, 1:25, 1:50, 1:100, 1:500 and 1:1000). Permeability coefficients were calculated for each sampling interval using the following equation:
[formula] Where VD=volume of donor (0.4 ml for Ap_Bl flux and 1.0 ml for Bl_Ap flux), A=surface area of the filter on which the monolayer was grown (0.31 cm2), MD(0)=mass in the donor at the beginning of the ith sampling interval, MR (t)=mass in the receiver at time t, and _t is the experimental interval (20 minutes). The apparent permeability, Papp, is then calculated as the average:
The average and standard deviation from the intervals is reported. Mass balance in the system was ascertained by comparing the sum of total transported solute and remaining donor solute with the starting mass of solute and is expressed as a percentage of donor solute at time zero. […] At the termination of the experiment, the cell monolayers are stored in the cold until the data is analyzed. After analysis, if mass balance falls below 70% in a given experiment, those monolayers are retrieved and extracted with acetonitrile. After separation of cellular debris, the extract is analyzed for recoverable solute of interest. […] All determinations were performed in duplicate.

[1] = Table 17, Digoxin 1 μM + Compound I-1 5.0 μM
[2] = preliminary experiment, Digoxin 1 μM + Compound I-1 0.5 μM
[3] = preliminary experiment, Digoxin 1 μM + Compound I-1 1.5 μM
[4] = preliminary experiment, Digoxin 1 μM + Compound I-1 5.0 μM

CC(C)(CO)c1cc(NC(=O)Nc2ccc(-c3cn4c(n3)sc3cc(OCCN5CCOCC5)ccc34)cc2)no1 [Compound I-1, 1-[5-(2-hydroxy-1,1-dimethyl-ethyl)-isoxazol-3-yl]-3-{4-[7-(2-morpholin-4-yl-ethoxy)-benzo[d]imidazo[2,1-b]thiazol-2-yl]-phenyl}-urea]
EC50 (MV4;11 cells): 0.0003 µM
Ki (CYP2C8; read-out: Best Fit KI, Competitive): 22.1 µM
Ki (CYP2C8; read-out: Best Fit KI, Non-competitive): 60.8 µM
Ki (CYP2C8; read-out: Best Fit KI′, Uncompetitive): 37.7 µM
IC50 (CYP2C19): 15.5 µM
IC50 at 20 min (CYP2D4): > 40 µM
% Block Trial 1 (hERG channel): <10%
% Block Trial 2 (hERG channel): <10%
EC50 (RS4;11 cells): 0.002 µM
IC50 (CYP3A4): > 40 µM
Percentage of unbound compound in 10% plasma (plasma protein): 42.5%
Digoxin Mass Bal (AP→BL) (P-Glycoprotein; [1]): 104%
Digoxin Mass Bal (BL→AP) (P-Glycoprotein; [1]): 98%
Digoxin Mass Bal (AP→BL) (P-Glycoprotein; [2]): 98%
Digoxin Mass Bal (BL→AP) (P-Glycoprotein; [2]): 91%
Digoxin Mass Bal (AP→BL) (P-Glycoprotein; [3]): 98%
Digoxin Mass Bal (BL→AP) (P-Glycoprotein; [3]): 94%
Digoxin Mass Bal (AP→BL) (P-Glycoprotein; [4]): 93%
Digoxin Mass Bal (BL→AP) (P-Glycoprotein; [4]): 99%
